Columns and labels:
[1] = tested on: HSL (hormone sensitive lipase); experiment: Western blotting, protein phosphorylation of HSL; assay type: in vivo, mouse; conditions: odor component-supplemented group to the HFD control group
Protocol: (§6) A certain amount of visceral fat or liver tissues in mortar was homogenized with liquid nitrogen and cell lysis buffer. The mixture was transferred to a new tube, followed by vortexing. After centrifugation at 13,000×g for 20 min at 4° C., the middle layer of the tube was obtained and proteins were quantified by Bradford method. 50 μg of protein was electrophorized to SDS polyacrylamide gel, followed by electroblotting to PVDF hyper film. The protein was reacted using an appropriate antibody for the protein and detected by ECL, whereby insulin resistance, adipocyte differentiation, lipid metabolism or energy consumption-related mechanism of phytochemical components was investigated in the protein level.
(§7) In order to verify this, protein phosphorylations of HSL (hormone sensitive lipase), CREB (cAMP-responsive element binding protein) and AKT (v-akt murine thymoma viral oncogene) were evaluated by western blotting analysis.

[2] = tested on: obesity and metabolic diseases-related genes in visceral fat tissue; experiment: RT-PCR of obesity and metabolic diseases-related genes, visceral fat tissue; assay type: in vivo, mouse; conditions: odor component-supplemented group to the HFD control group
Protocol: (§1) After adding 1 mL of Trizol agent (Invitrogen, USA) per 0.1 g of visceral fat or liver tissues, the mixture was homogenized and centrifuged at 12,000×g for 10 min at 4° C. The supernatant was transferred to a new tube and 200 μl of chloroform was added to the tube, followed by vortexing. The same procedure was repeated twice and then the supernatant was transferred to a new tube, followed by addition of isopropanol and the supernatant at 1:1 ratio. The mixture was vigorously shaken 10 times and then incubated for 10 min at room temperature, followed by centrifugation at 12,000×g for 10 min at 4° C. to remove the supernatant. After adding 1 mL of 70% ethanol to the remaining pellet, it was centrifuged at 7,500×g for 5 min at 4° C. After removing the ethanol, the RNA pellet contained in the tube was dried for 5 min at 4° C. and dissolved in nuclease-free water. The RNA sample concentration was measured at a wavelength of 260 nm and 280 nm using a UV/VIS spectrophotometer (Beckman coulter, DU730) and the integrity of RNA sample was verified by agarose gel electrophoresis. The RNA sample obtained from the visceral fat or liver tissues was trasnscribed using oligo dT primer and reverse transcriptase (GIBCO BRL, Gaithersburg, Md., USA) to synthesize cDNA. The PCR amplification was performed using the cDNA as templates and primers complementary to cDNA [NT] flanking sequence. 1 μl of the amplified products were resolved on agarose gel electrophoresis to verify DNA band.

[3] = tested on: CREB (cAMP-responsive element binding protein); experiment: Western blotting, protein phosphorylation of CREB; assay type: in vivo, mouse; conditions: odor component-supplemented group to the HFD control group
Protocol: as §6, §7

[4] = tested on: obesity and metabolic diseases-related genes in liver tissue; experiment: RT-PCR of obesity and metabolic diseases-related genes, liver tissue; assay type: in vivo, mouse; conditions: odor component-supplemented group to the HFD control group
Protocol: as §1

[5] = tested on: olfactory receptors in liver tissue; experiment: OligoDNA microarray, liver tissue of HFD mice fed odor components; assay type: in vivo, mouse; conditions: supplemented to HFD-fed mouse 10 weeks
Excerpt: (§2) The obesity-inducing control diet used in the test was high-fat diet (HFD: 40% fat calorie, 17 g lard+3% corn oil/100 g diet). Diets supplemented with an odor component had the same composition as HFD, except that each of various types of odor components (indol-3-carbinol, oleuropein, cedryl acetate, α-cedrene and piperine) having anti-obesity efficacy was contained in 0.02-0.05% concentration. Indo)-3-carbinol, oleuropein, cedryl acetate, a-cedrene and piperine were purchased from Sigma-Aldrich.
(§3) After adding Trizol agent to visceral fat or liver tissue, the mixture was homogenized and centrifuged at 12,000×g for 10 min at 4° C. The supernatant was transferred to a new tube to remove fat layer. Then, 200 μl of chloroform was added to the tube, followed by vortexing. The same procedure was repeated twice and then the supernatant was transferred to a new tube, followed by addition of isopropanol and the supernatant at 1:1 ratio. The mixture was vigorously shaken 10 times and then incubated for 10 min at room temperature, followed by centrifugation at 12,000×g for 10 min at 4° C. to remove the supernatant. After adding 1 mL of 70% ethanol to the remaining pellet, it was centrifuged at 7,500×g for 5 min at 4° C. After removing the ethanol, the RNA pellet contained in the tube was dried for 5 min at 4° C. and dissolved in nuclease-free water. The RNA sample concentration was measured at a wavelength of 260 nm and 280 nm using a UV/VIS spectrophotometer (Beckman coulter, DU730) and the integrity of RNA sample was verified by agarose gel electrophoresis.
(§4) DNA microarry analysis using RNAs of visceral fat and liver tissue was conducted by GENOCHECK (CO., LTD.). RNA samples were pooled from 10 mice in each experimental group and subjected to microarray experiments in triplicate for the test of reproducibility. NimbleGen Mouse Whole Oligo 12-plex chip used in this experiment was prepared by triplicating 42,576 genes using Mouse Genome Build 8 as database. In NimbleGen mouse Whole Oligo 12-plex chip, 137,090 spots excluded control group gene were spotted by 16 μm×16 μm size in 17.4 mm×13 mm size. 42,576 oligo included […] genes which are known their functions and 5,431 transcripts and EST sequences which are unknown their functions. 10-50 μg of total RNA was added in oligo-dT primer, reverse transcriptase, dNTP, Cy3-dUTP and Cy5-dUTP, and reverse-transcripted according to the kit manufacturer's recommendations. The resultant was purified using cartridge, dried and dissolved in hybridization buffer solution (30 μL). The microarray was placed in hybridization cassette, heated at 95-100° C. for 5 min, mixed independently to each of RNA labeled with Cy3 and Cy5, and hybridized at 45° C. for 18 hrs. The slide was washed twice in solution containing 1×SSC and 0.1% SDS for 5 min, washed in 1×SSC for 5 min and dried to analyze.
(§5) The profile for olfactory receptors in which the expression was regulated by more than 2-fold change due to intake of odor components at each tissue was shown in Tables 5. As a result, it was determined that various types of odor components having anti-obesity efficacy regulated a plurality of olfactory receptors in peripheral tissues.

[6] = tested on: olfactory receptors in visceral fat tissue; experiment: OligoDNA microarray, visceral fat tissue of HFD mice fed odor components; assay type: in vivo, mouse; conditions: supplemented to HFD-fed mouse 10 weeks
Protocol: DNA microarry analysis using RNAs of visceral fat and liver tissue was conducted by GENOCHECK (CO., LTD.). RNA samples were pooled from 10 mice in each experimental group and subjected to microarray experiments in triplicate for the test of reproducibility. NimbleGen Mouse Whole Oligo 12-plex chip used in this experiment was prepared by triplicating 42,576 genes using Mouse Genome Build 8 as database. In NimbleGen mouse Whole Oligo 12-plex chip, 137,090 spots excluded control group gene were spotted by 16 μm×16 μm size in 17.4 mm×13 mm size. 42,576 oligo included 137,145 genes which are known their functions and 5,431 transcripts and EST sequences which are unknown their functions. 10-50 μg of total RNA was added in oligo-dT primer, reverse transcriptase, dNTP, Cy3-dUTP and Cy5-dUTP, and reverse-transcripted according to the kit manufacturer's recommendations. The resultant was purified using cartridge, dried and dissolved in hybridization buffer solution (30 μL). The microarray was placed in hybridization cassette, heated at 95-100° C. for 5 min, mixed independently to each of RNA labeled with Cy3 and Cy5, and hybridized at 45° C. for 18 hrs. The slide was washed twice in solution containing 1×SSC and 0.1% SDS for 5 min, washed in 1×SSC for 5 min and dried to analyze.

[7] = tested on: AKT (v-akt murine thymoma viral oncogene); experiment: Western blotting, protein phosphorylation of AKT; assay type: in vivo, mouse; conditions: odor component-supplemented group to the HFD control group
Protocol: as §6, §7

[8] = tested on: olfactory receptors in visceral fat and liver tissues; experiment: OligoDNA microarray, visceral fat and liver tissues of HFD mice fed odor components (tissue not separated in text); assay type: in vivo; conditions: supplemented to mouse fed high-fat diet for 10 weeks
Excerpt: as §2, §3, §4, §5

Q: How did the “HSL phosphorylation, increase (change rate)” value [1] turn out when `C/C=C1/[C@H](O[C@@H]2O[C@H](CO)[C@@H](O)[C@H](O)[C@H]2O)OC=C(C(=O)OC)[C@H]1CC(=O)OCCc1ccc(O)c(O)c1` [oleuropein] was run?
A: 52% increase

Q: What about the “C/EBPα gene expression, decrease (change rate)” value [2] of the same compound?
A: 22% decrease

Q: And the “CPT1 gene expression, increase (change rate)” value [2]?
A: 50% increase^

Q: And the “FAS gene expression, decrease (change rate)” value [2]?
A: 65 decrease %

Q: What about the “IL-6 gene expression, decrease (change rate)” value [2] of the same compound?
A: 78% decrease

Q: And the “PGC1α gene expression, increase (change rate)” value [2]?
A: 210% increase ^

Q: And the “PPARγ2 gene expression, decrease (change rate)” value [2]?
A: 35% decrease

Q: What about the “SIRT1 gene expression, increase (change rate)” value [2] of the same compound?
A: 98% increase^

Q: And the “TNFα gene expression, decrease (change rate)” value [2]?
A: 66% decrease

Q: And the “UCP1 gene expression, increase (change rate)” value [2]?
A: 450% increase ^

Q: And the “UCP3 gene expression, increase (change rate)” value [2]?
A: 82% increase^

Q: And the “aP2 gene expression, decrease (change rate)” value [2]?
A: 26% decrease

Q: What about the “CREB phosphorylation, increase (change rate)” value [3] of the same compound?
A: 60% increase

Q: And the “C/EBPα gene expression, decrease (change rate)” value [4]?
A: 16% decrease

Q: What about the “CPT1 gene expression, increase (change rate)” value [4] of the same compound?
A: 33% increase^

Q: What about the “FAS gene expression, decrease (change rate)” value [4] of the same compound?
A: 40% decrease

Q: What about the “IL-6 gene expression, decrease (change rate)” value [4] of the same compound?
A: 62% decrease

Q: What about the “PPARγ2 gene expression, decrease (change rate)” value [4] of the same compound?
A: 94% decrease

Q: And the “TNFα gene expression, decrease (change rate)” value [4]?
A: 60% decrease

Q: And the “aP2 gene expression, decrease (change rate)” value [4]?
A: 29% decrease

Q: What about the “Olfr38 expression fold change to HFD group” value [5] of the same compound?
A: 2.35

Q: What about the “Olfr275 expression fold change to HFD group” value [5] of the same compound?
A: 2.49

Q: What about the “Olfr1136 expression fold change to HFD group” value [5] of the same compound?
A: 0.49

Q: What about the “Olfr1204 expression fold change to HFD group” value [5] of the same compound?
A: 2.21

Q: What about the “Olfr1214 expression fold change to HFD group” value [5] of the same compound?
A: 2.17

Q: What about the “Olfr1317 expression fold change to HFD group” value [5] of the same compound?
A: 2.89

Q: What about the “Olfr290 expression fold change to HFD group” value [6] of the same compound?
A: 2.32

Q: What about the “Olfr341 expression fold change to HFD group” value [6] of the same compound?
A: 0.3

Q: What about the “Olfr495 expression fold change to HFD group” value [6] of the same compound?
A: 0.21

Q: And the “Olfr520 expression fold change to HFD group” value [6]?
A: 2.08

Q: And the “Olfr907 expression fold change to HFD group” value [6]?
A: 0.49

Q: And the “Olfr971 expression fold change to HFD group” value [6]?
A: 2.37

Q: And the “Olfr1046 expression fold change to HFD group” value [6]?
A: 2.01

Q: And the “Olfr1104 expression fold change to HFD group” value [6]?
A: 4.39

Q: And the “Olfr1447 expression fold change to HFD group” value [6]?
A: 2.33

Q: And the “Olfr341 expression fold change to HFD group” value ([6]; listed as Oleuropein)?
A: 0.30

Q: And the “AKT phosphorylation, increase (change rate)” value [7]?
A: 59% increase

Q: And the “expression of olfactory receptor 38 increased” value [8]?
A: more than 2 fold change

Q: What about the “expression of olfactory receptor 275 increased” value [8] of the same compound?
A: more than 2 fold change

Q: What about the “expression of olfactory receptor 290 increased” value [8] of the same compound?
A: more than 2 fold change

Q: What about the “expression of olfactory receptor 341 decreased” value [8] of the same compound?
A: more than 2 fold change

Q: What about the “expression of olfactory receptor 495 decreased” value [8] of the same compound?
A: more than 2 fold change

Q: And the “expression of olfactory receptor 520 increased” value [8]?
A: more than 2 fold change

Q: What about the “expression of olfactory receptor 907 decreased” value [8] of the same compound?
A: more than 2 fold change

Q: What about the “expression of olfactory receptor 971 increased” value [8] of the same compound?
A: more than 2 fold change

Q: And the “expression of olfactory receptor 1046 increased” value [8]?
A: more than 2 fold change

Q: And the “expression of olfactory receptor 1104 increased” value [8]?
A: more than 2 fold change

Q: And the “expression of olfactory receptor 1136 decreased” value [8]?
A: more than 2 fold change

Q: What about the “expression of olfactory receptor 1204 increased” value [8] of the same compound?
A: more than 2 fold change

Q: What about the “expression of olfactory receptor 1214 increased” value [8] of the same compound?
A: more than 2 fold change

Q: And the “expression of olfactory receptor 1317 increased” value [8]?
A: more than 2 fold change

Q: What about the “expression of olfactory receptor 1447 increased” value [8] of the same compound?
A: more than 2 fold change

From patent US10167507B2, “Metabolic diseases-related odorant receptor genes and use thereof” (INDUSTRY-ACADEMIC COOPERATION FOUNDATION, YONSEI UNIVERSITY, priority 2010, dated 2019)
